Laboratory results taken from US20240239752A1, “BICYCLIC HETEROAROMATIC INHIBITORS OF KLK5” (BioCryst Pharmaceuticals, Inc., priority 2021, published 2024).

Target: T1, recombinant human KLK5 (Homo sapiens, UniProt Q9Y337)
T1 construct: purchased Novoprotein or R&D Systems C415 or 1108-SE
T1 sequence (Q9Y337 23-293): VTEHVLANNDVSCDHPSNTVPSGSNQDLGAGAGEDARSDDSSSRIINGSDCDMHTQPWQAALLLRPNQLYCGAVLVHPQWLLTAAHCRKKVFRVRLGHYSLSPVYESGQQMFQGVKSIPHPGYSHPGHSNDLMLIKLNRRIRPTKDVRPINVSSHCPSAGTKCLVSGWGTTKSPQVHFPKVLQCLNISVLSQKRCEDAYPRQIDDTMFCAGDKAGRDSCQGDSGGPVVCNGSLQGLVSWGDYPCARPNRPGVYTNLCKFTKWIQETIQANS
Assay: Kallikrein (KLK) 5 enzymatic assay (Boc-VPR-AMC fluorogenic substrate)
Assay type: biochemical
Conditions: recombinant human KLK5 0.1 μg/well, Boc-VPR-AMC 100 μM, pH 7.5, room temperature, 1% DMSO; tested a minimum of three times
Method in brief: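 Recombinant human KLK5 (0.1 μg/well) was preincubated with compound at room temperature in 0.1 M NaH2PO4, pH 7.5, 1% DMSO, then started with 100 μM Boc-VPR-AMC. The rate was followed at 380/460 nm, and IC50 came from percent inhibition relative to enzyme alone, with at least three runs.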

Compound	IC50
CC(C)n1nc(COc2ccccc2CC(=O)O)c2cc(-c3ccc4[nH]c(N)nc4c3)ccc21 [Compound 26c, 2-(2-((5-(2-amino-1H-benzo[d]imidazol-5-yl)-1-isopropyl-1H-indazol-3-yl)methoxy)phenyl)acetic acid]	1000 to 10000 nM
Nc1nccc2c(-c3ccc4c(c3)[C@H](Oc3ccccc3CC(=O)O)CC43CCN(CC(=O)O)CC3)cccc12 [Compound 415b, (R)-2-(2-((5-(1-aminoisoquinolin-5-yl)-1′-(carboxymethyl)-2,3-dihydrospiro[indene-1,4′-piperidin]-3-yl)oxy)phenyl)acetic acid]	< 1000 nM
Nc1nccc2ccc(-c3ccc4nn(C5CCC5)c(COc5cc(C(F)(F)F)ccc5CC(=O)O)c4c3)cc12 [Compound 151d, 2-(2-((5-(1-aminoisoquinolin-7-yl)-2-cyclobutyl-2H-indazol-3-yl)methoxy)-4-(trifluoromethyl)phenyl)acetic acid]	> 10000 nM
CC(C)CCN1CC(n2nc3ccc(-c4ccc5ccnc(N)c5c4)cc3c2COc2ccccc2CC(=O)O)C1 [Compound 124b, 2-(2-((5-(1-aminoisoquinolin-7-yl)-2-(1-isopentylazetidin-3-yl)-2H-indazol-3-yl)methoxy)phenyl)acetic acid]	1000 to 10000 nM
COc1cccc(OCc2nn(C3CCC3)c3ccc(-c4cccc5c(N)nccc45)cc23)c1CC(=O)O [Compound 173b, 2-(2-((5-(1-aminoisoquinolin-5-yl)-1-cyclobutyl-1H-indazol-3-yl)methoxy)-6-methoxyphenyl)acetic acid]	< 1000 nM
Nc1nccc2ccc(-c3ccc4[nH]nc(COc5ccccc5CC(=O)O)c4c3)cc12 [Compound 98a, 2-(2-((5-(1-aminoisoquinolin-7-yl)-1H-indazol-3-yl)methoxy)phenyl)acetic acid]	< 1000 nM
CCS(=O)(=O)N1CC(n2nc3ccc(-c4ccc5ccnc(N)c5c4)cc3c2COc2ccccc2CC(=O)O)C1 [Compound 133b, 2-(2-((5-(1-aminoisoquinolin-7-yl)-2-(1-(ethylsulfonyl)azetidin-3-yl)-2H-indazol-3-yl)methoxy)phenyl)acetic acid]	> 10000 nM
Nc1nccc2ccc(-c3ccc4nn(C5CC(N)C5)c(COc5ccccc5CC(=O)O)c4c3)cc12 (stereo not drawn) [Compound 138b, 2-(2-((2-(3-aminocyclobutyl)-5-(1-aminoisoquinolin-7-yl)-2H-indazol-3-yl)methoxy)phenyl)acetic acid]	1000 to 10000 nM
CC(C)n1nc(COc2ccccc2CC(=O)O)c2cc(-c3cccc4c(N)noc34)ccc21 [Compound 30c, 2-(2-((5-(3-aminobenzo[d]isoxazol-7-yl)-1-isopropyl-1H-indazol-3-yl)methoxy)phenyl)acetic acid]	> 10000 nM
Nc1nccc2c(-c3ccc4c(c3)c(COc3ccc(F)cc3CC(=O)O)nn4C3CCC3)cccc12 [Compound 167b, 2-(2-((5-(1-aminoisoquinolin-5-yl)-1-cyclobutyl-1H-indazol-3-yl)methoxy)-5-fluorophenyl)acetic acid]	< 1000 nM
Nc1nccc2c(-c3ccc4[nH]nc(COc5ccccc5CC(=O)O)c4c3)cccc12 [Compound 97a, 2-(2-((5-(1-aminoisoquinolin-5-yl)-1H-indazol-3-yl)methoxy)phenyl)acetic acid]	< 1000 nM
Cn1nc(COc2ccccc2CC(=O)O)c2cc(-c3cccc(C(=N)N)c3)ccc21 [Compound 4e, 2-(2-((5-(3-carbamimidoylphenyl)-1-methyl-1H-indazol-3-yl)methoxy)phenyl)acetic acid]	< 1000 nM

Second part, the compound after the results:

IC50	Compound
> 10000 nM	Nc1nccc2ccc(-c3ccc4c(c3)c(Cn3ccc5cccc(C(=O)O)c53)nn4C3CCOC3)cc12 (stereo not drawn) [Compound 275b, 1-((5-(1-aminoisoquinolin-7-yl)-1-(tetrahydrofuran-3-yl)-1H-indazol-3-yl)methyl)-1H-indole-7-carboxylic acid]
< 1000 nM	Nc1nccc2ccc(-c3ccc4c(c3)C(Oc3ccccc3CC(=O)O)CC43CCCC3)cc12 (stereo not drawn) [Compound 355b, 2-(2-((5′-(1-aminoisoquinolin-7-yl)-2′,3′-dihydrospiro[cyclopentane-1,1′-inden]-3′-yl)oxy)phenyl)acetic acid]
1000 to 10000 nM	Cn1c(=O)n(Cc2ccccc2CC(=O)O)c2cc(-c3cccc(C(N)=O)c3)ccc21 [Compound 219d, 2-(2-((6-(3-carbamoylphenyl)-3-methyl-2-oxo-2,3-dihydro-1H-benzo[d]imidazol-1-yl)methyl)phenyl)acetic acid]
< 1000 nM	CCOC(=O)N1CC[C@@H](n2nc(COc3ccccc3CC(=O)O)c3cc(-c4ccc5ccnc(N)c5c4)ccc32)C1 [Compound 342b, (R)-2-(2-((5-(1-aminoisoquinolin-7-yl)-1-(1-(ethoxycarbonyl)pyrrolidin-3-yl)-1H-indazol-3-yl)methoxy)phenyl)acetic acid]
1000 to 10000 nM	COc1c(-c2cc3c(COc4ccccc4CC(=O)O)cccc3o2)ccnc1CN [Compound 329d, 2-(2-((2-(2-(aminomethyl)-3-methoxypyridin-4-yl)benzofuran-4-yl)methoxy)phenyl)acetic acid]
< 1000 nM	N#Cc1ccc(CC(=O)O)c(O[C@@H]2CCc3ccc(-c4ccc5ccnc(N)c5c4)cc32)c1 [Compound 423c, (R)-2-(2-((6-(1-aminoisoquinolin-7-yl)-2,3-dihydro-1H-inden-1-yl)oxy)-4-cyanophenyl)acetic acid]
< 1000 nM	Nc1nccc2c(-c3ccc4c(c3)c(COc3ccccc3CC(=O)O)nn4C3CCOCC3)cccc12 [Compound 282b, 2-(2-((5-(1-aminoisoquinolin-5-yl)-1-(tetrahydro-2H-pyran-4-yl)-1H-indazol-3-yl)methoxy)phenyl)acetic acid]
< 1000 nM	Cc1cccc(O[C@@H]2CCc3ccc(-c4cccc5c(N)nccc45)cc32)c1CC(=O)O [Compound 259c, (R)-2-(2-((6-(1-aminoisoquinolin-5-yl)-2,3-dihydro-1H-inden-1-yl)oxy)-6-methylphenyl)acetic acid]
< 1000 nM	CCC(=O)N1CCC2(CC1)CC(Oc1ccccc1CC(=O)O)c1cc(-c3cccc4c(N)nccc34)ccc12 (single isomer, unassigned; (+)) [Compound 385d, (+)-2-(2-((5-(1-aminoisoquinolin-5-yl)-1′-propionyl-2,3-dihydrospiro[indene-1,4′-piperidin]-3-yl)oxy)phenyl)acetic acid]
1000 to 10000 nM	COc1c(-c2ccc3c(c2)c(COc2ccccc2CC(=O)O)nn3C2CCC2)ccnc1CN [Compound 328d, 2-(2-((5-(2-(aminomethyl)-3-methoxypyridin-4-yl)-1-cyclobutyl-1H-indazol-3-yl)methoxy)phenyl)acetic acid]
< 1000 nM	Cc1cccc(OC2CC3(CCCC3)c3ccc(-c4cccc5c(N)nccc45)cc32)c1CC(=O)O (stereo not drawn) [Compound 366c, 2-(2-((5′-(1-aminoisoquinolin-5-yl)-2′,3′-dihydrospiro[cyclopentane-1,1′-inden]-3′-yl)oxy)-6-methylphenyl)acetic acid]
< 1000 nM	Nc1nccc2c(-c3ccc4c(c3)C(Oc3ccccc3CC(=O)O)c3ccccc3-4)cccc12 (stereo not drawn) [Compound 210b, 2-(2-((2-(1-aminoisoquinolin-5-yl)-9H-fluoren-9-yl)oxy)phenyl)acetic acid]
